According to the supplement of paper PMC6580486:

Assays:
[1] = system: PCB490-4 (human epithelioid sarcoma primary culture)
Description: (§1)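 Roche open-access kinase inhibitor screen (223 compounds) on human epithelioid sarcoma primary cultures from three spatially distinct regions of tumor PCB490. 384-well plates, 72 h, CellTiter-Glo viability; IC50 by Hill curve fit. 100000 nM = no IC50 reached. Compound ids carry a plate-well prefix, which is stripped.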

[2] = system: PCB490-5 (human epithelioid sarcoma primary culture)
Description: as §1

[3] = system: PCB490-3 (human epithelioid sarcoma primary culture)
Description: as §1

Compound | IC50 cell viability [1] [µM] | IC50 cell viability [2] [µM] | IC50 cell viability [3] [µM]
COc1cccc(C(=O)c2sc(Nc3ccc(N4CCN(C(C)C)CC4)cc3)nc2N)c1 | > 100 | > 100 | > 100
Cn1c(=O)c(Oc2ccc(F)cc2F)cc2cnc(N[C@H]3CCOC3)nc21 | > 100 | > 100 | > 100
Nc1c(C(=O)c2cccc(OCCN3CCOCC3)c2)cnn1-c1ccc(F)cc1 | > 100 | > 100 | > 100
COc1cc[nH]c1/C=C1\C(=O)Nc2ccc(F)c(I)c21 | > 100 | > 100 | > 100
Cn1c(=O)c(Oc2ccccc2)cc2cnc(NC3CCOCC3)nc21 | > 100 | > 100 | > 100
CC(=O)N[C@@H](Cc1ccc(OP(=O)(O)O)cc1)C(=O)N[C@H]1CCC(=O)N2CCC[C@@H](C(=O)NC3CCc4ccccc43)N2C1=O (stereo not given in full) | > 100 | > 100 | > 100
Fc1ccc(-c2c(-c3ccncc3)[nH]c3cccnc23)cc1 | > 100 | > 100 | > 100
C/C(=C1/SC(=NCc2cccs2)NC1=O)c1ccc2ncccc2c1 | > 100 | > 100 | > 100
Cn1cc(C2=C(c3cccc([N+](=O)[O-])c3)C(=O)NC2=O)c2ccccc21 | > 100 | > 100 | > 100
Fc1ccc(-c2c(-c3ccncc3)n(CCN3CCOCC3)c3cccnc23)cc1 | > 100 | > 100 | > 100
N#Cc1c(C(=O)c2ccccc2)cnn1-c1ccccc1 | > 100 | > 100 | > 100
Cn1c(=O)c(Oc2ccc(F)cc2F)cc2cnc(NC(C)(C)CO)nc21 | > 100 | > 100 | > 100
N=C1N=C(N)/C(=C/c2ccc3ncccc3c2)S1 | > 100 | > 100 | > 100
COc1ccc(OC)c(C2=C(c3cn(C)c4ccccc34)C(=O)NC2=O)c1 | > 100 | > 100 | > 100
COc1ccc(O)c(C(=O)c2ccc(C(=O)O[C@@H]3CCCNC[C@H]3NC(=O)c3ccncc3)cc2)c1F | > 100 | > 100 | > 100
CSc1c(C2=C(c3cn(C)c4ccccc34)C(=O)NC2=O)c2ccccc2n1C | > 100 | > 100 | > 100
Cn1cc(C2=C(c3cn(C)c4cc(Cl)ccc34)C(=O)NC2=O)c2ccccc21 | > 100 | > 100 | > 100
COc1cc(F)c(F)c(F)c1C(=O)c1cnc(NC2CCN(S(C)(=O)=O)CC2)nc1N | 4.47 | 7.14 | > 100
COc1cccc(C2=C(c3cn(C)c4cccc(OC)c34)C(=O)NC2=O)c1 | > 100 | > 100 | > 100
N#CCn1c(=O)c(Oc2ccc(F)cc2F)cc2cnc(NC3CCOCC3)nc21 | > 100 | > 100 | > 100

Compound | IC50 cell viability [1] [µM] | IC50 cell viability [2] [µM] | IC50 cell viability [3] [µM]
Cn1cc(C2=C(Nc3ccccc3)C(=O)NC2=O)c2ccccc21 | > 100 | > 100 | > 100
Nc1c(C(=O)c2cccc(C(O)CO)c2)cnn1-c1ccc(F)cc1 (stereo not given) | > 100 | > 100 | > 100
CS(=O)(=O)N1CCC(Nc2ncc(C(=O)c3c(F)cccc3F)c(N)n2)CC1 | > 100 | > 100 | > 100
CN1CCN(CCc2cccc(C(=O)c3cnn(-c4ccc(F)cc4)c3N)c2)CC1 | > 100 | > 100 | > 100
Cn1cc(C2=C(N3CCOCC3)C(=O)NC2=O)c2ccccc21 | > 100 | > 100 | > 100
Nc1c(C(=O)c2cccc(-c3cccnc3)c2)cnn1-c1ccc(F)cc1F | > 100 | > 100 | > 100
Cn1cc(C2=C(c3cn(C)c4ccccc34)C(=O)NC2=O)c2ccccc21 | > 100 | > 100 | > 100
C[C@@H](CS(C)(=O)=O)Nc1ncc2cc(Oc3ccc(F)cc3F)c(=O)n(C)c2n1 | > 100 | > 100 | > 100
Nc1c(C(=O)c2cccc(OC[C@H](O)CO)c2)cnn1-c1ccc(F)cc1 | > 100 | > 100 | > 100
O=C1NC(=N[C@@H]2C[C@H]2c2ccccc2)S/C1=C\c1ccc2ncccc2c1 | > 100 | > 100 | > 100
CCCn1cc(C2=C(c3cn(C)c4ccccc34)C(=O)NC2=O)c2ccccc21 | > 100 | > 100 | > 100
O=c1c(Oc2ccc(F)cc2F)cc2cnc(NC3CCOCC3)nc2n1C1CC1 | > 100 | > 100 | > 100
CC(=O)N1CCC(Nc2ncc3cc(Oc4ccc(F)cc4F)c(=O)n(C)c3n2)CC1 | > 100 | > 100 | > 100
COc1ccc(CCN=C2NC(=O)/C(=C/c3ccc4ncccc4c3)S2)cc1 | > 100 | > 100 | > 100
C[C@H](CS(C)(=O)=O)Nc1ncc2cc(Oc3ccc(F)cc3F)c(=O)n(C)c2n1 | > 100 | > 100 | > 100
COc1ccc2c(C3=C(c4cn(C)c5ccccc45)C(=O)NC3=O)cn(C)c2c1 | > 100 | > 100 | > 100
Cn1cc(C2=C(c3c4n(c5ccccc35)CCCCC4)C(=O)NC2=O)c2ccccc21 | > 100 | > 100 | > 100
O=C1NC(=O)/C(=C/c2ccc3ncccc3c2)S1 | > 100 | > 100 | > 100
O=C1NC(=NCC(CO)c2ccccc2)S/C1=C\c1ccc2ncccc2c1 (stereo not given) | > 100 | > 100 | > 100
COc1cccc(C2=C(c3cn(C)c4ccccc34)C(=O)NC2=O)c1 | > 100 | > 100 | > 100

Compound | IC50 cell viability [1] [µM] | IC50 cell viability [2] [µM] | IC50 cell viability [3] [µM]
Cn1c(=O)c(Sc2ccccc2F)cc2cnc(NC3CCOCC3)nc21 | > 100 | > 100 | > 100
Nc1c(C(=O)c2ccc(CCCN3CCOCC3)cc2)cnn1-c1ccc(F)cc1 | > 100 | > 100 | > 100
CC(=O)N[C@@H](Cc1ccc(OP(=O)(O)O)cc1)C(=O)N[C@H]1CCC(=O)N2CCC[C@@H](C(=O)NCc3ccc(Cl)cc3)N2C1=O | > 100 | > 100 | > 100
Cc1[nH]nc2c1N=C(c1ccccc1Cl)c1cc([N+](=O)[O-])ccc1N2 | > 100 | > 100 | > 100
Cn1cc(C2=C(c3cn(CCCO)c4ccccc34)C(=O)NC2=O)c2ccccc21 | > 100 | > 100 | > 100
CN1CCN(c2ccc(Nc3nc(N)c(C(=O)c4ccc5c(c4)OCCO5)s3)cc2)CC1 | > 100 | > 100 | > 100
COc1ccc(C2=C(c3cn(C)c4ccccc34)C(=O)NC2=O)cc1OC | > 100 | > 100 | > 100
Cn1cc(C2=C(c3cn(C)c4cc(C(N)=O)ccc34)C(=O)NC2=O)c2ccccc21 | > 100 | > 100 | > 100
Cn1cc(C2=C(c3ccccc3[N+](=O)[O-])C(=O)NC2=O)c2ccccc21 | > 100 | > 100 | > 100
Cn1c(=O)c(Oc2ccccc2F)cc2cnc(NC3CCOCC3)nc21 | > 100 | > 100 | > 100
Cc1c(C2=C(c3cn(C)c4ccccc34)C(=O)NC2=O)c2ccccc2n1C | > 100 | > 100 | > 100
Cn1cc(C2=C(c3cn(CCCCN)c4ccccc34)C(=O)NC2=O)c2ccccc21 | > 100 | > 100 | > 100
CNc1ncc2cc(Oc3ccc(F)cc3F)c(=O)n(C)c2n1 | > 100 | > 100 | > 100
COc1cc[nH]c1/C=C1\C(=O)Nc2ccccc21 | > 100 | > 100 | > 100
Cn1cc(C2=C(c3cccc(NCC(O)CO)c3)C(=O)NC2=O)c2cc(Cl)ccc21 (stereo not given) | 2 | 2.34 | > 100
COc1ccc(N2Cc3cnc(Nc4ccccc4)nc3N([C@@H]3CC[C@@H](O)C3)C2=O)cc1 | 1.79 | 2.16 | 2.59
Cn1c(-c2ccncc2)c(-c2ccc(F)cc2)c2ncccc21 | > 100 | > 100 | > 100
O=C1NC(=N[C@@H](CO)Cc2ccccc2)S/C1=C\c1ccc2ncccc2c1 | > 100 | > 100 | > 100
Nc1c(C(=O)c2cccc(C(O)(CO)CO)c2)cnn1-c1ccc(F)cc1 | > 100 | > 100 | > 100
O=C1Nc2ccc(F)cc2/C1=C/c1ccc[nH]1 | > 100 | > 100 | > 100
